# Source: PMC11990662, “Synthesis and Evaluation of the Antiproliferative Activity of the Derivatives of 3,5-Diaryl-3,4-dihydro-2H-pyrrole-2-carboxylic Acids” (Molecules, 2025)
# How the values were obtained:
# [1] = system: MCF-10A (non-tumorigenic epithelial cells of mammary gland); experiment: MTT antiproliferative assay, MCF-10A; assay type: cell-based, human; details: 72 h
# Protocol: (§1) Antiproliferative activity of some compounds was evaluated on cell cultures derived from MDA-MB-231 (triple negative human breast carcinoma). […] This finding allowed us to further investigate the antiproliferative activity of selected compounds on additional tumor cell lines. We studied the influence of the stereochemical orientation of the substituents at C2 and C3 in substituted 3,4-dihydro-2H-pyrrole-2-carbonitriles. The antiproliferative activity of single diastereomers of some nitriles 4 and the amide cis-6m were assessed on multiple human cancer cell lines via the MTT assay. For these experiments, the following human cell lines were used: MCF-7 (luminal type A breast carcinoma), MD-MBA-231, H1299 (non-small-cell lung carcinoma cells), A549 (lung alveolar adenocarcinoma), HeLa (cervical cancer), HepG2 (hepatocellular carcinoma), HT-29 (colorectal adenocarcinoma) and PC3 (prostate adenocarcinoma). As a model of normal tissue, we used MCF-10A (non-tumorigenic epithelial cells of mammary gland). Table 5 and Table 6 present the values of concentration that inhibits cell viability to 50% (IC50) and selectivity index (SI = IC50(MCF-10A)/IC50(tumor cell line)).
# (§2) The antiproliferative activity testing was performed on cell cultures from several human cancer cell lines the MTT-dye reduction assay, described by Mosmann. Cell lines were obtained from the American Type Cultures Collection (ATCC, Manassas, VA, USA). In this article we used the following cell lines: MCF-10A (ATCC, CRL-10317™) Non-tumorigenic epithelial cells of mammary gland, MCF-7 (ATCC, HTB-22™) Luminal type A breast carcinoma, MDA-MB-231 (ATCC, HTB-26™) Triple negative breast carcinoma, H1299 (ATCC, CRL-5803™) Non-small-cell lung carcinoma, A549 (ATCC, CRM-CCL-185™) Llung alveolar adenocarcinoma, HeLa (ATCC, CCL-2™) Cervical cancer, Hep G2 (ATCC, HB-8065™) Hepatocellular carcinoma, HT-29 (ATCC, HTB-38™) Colorectal adenocarcinoma, PC-3 (ATCC, CRL-1435™) Prostate adenocarcinoma. The cells were cultured in a cell culture laboratory at the Institute of Experimental Morphology, Pathology and Anthropology with a Museum—Bulgarian Academy of Sciences. They were cultured in Dulbecco’s Modified Eagle’s medium, high glucose (DMEM 4.5 g/L glucose), supplied with 10% fetal bovine serum and antibiotics in usual concentrations in a humidified atmosphere with 5% CO2 at 37.5 °C. In the case of MCF-10A cells, epidermal growth factor, insulin and cholera toxin were added in concentrations corresponding to the cell bank instructions. Cells were plated at a density of 1 × 10^3 cells per well in a 96-well flat-bottomed microplates and allowed to adhere for 24 h before treatment with the test compounds, dissolved in DMSO, and further diluted in culture medium to the final concentrations. A concentration ranges from 5 µM to 4.1 mM was tested over an incubation period of 72 h. Cisplatin (Sigma-Aldrich) was used as a positive control in a concentration range 50 nM to 100 µM. All experiments were performed in triplicates. The MTT-formazan absorption was measured using a microplate reader (TECAN, Sunrise^TM, Groedig/Salzburg, Austria) at 570 nm. Antiproliferative activities were expressed as IC50 values (concentrations required for 50% inhibition of cell growth), calculated using non-linear regression analysis (GraphPad Prizm8 Software). The statistical analysis involved One-way ANOVA followed by Bonferroni’s post hoc test p < 0.05 was accepted as the lowest level of statistical significance.
# [2] = system: MCF-7 (luminal type A breast carcinoma); experiment: MTT antiproliferative assay, MCF-7; assay type: cell-based, human; details: MCF-7, MTT, 72 h
# Protocol: as §1, §2
# [3] = system: MDA-MB-231 (triple negative human breast carcinoma); experiment: MTT antiproliferative assay, MDA-MB-231; assay type: cell-based; details: for IC50: MDA-MB-231, MTT, 72 h; for antiproliferative activity (in words): MDA-MB-231, preliminary experiments
# Protocol: as §1, §2
# [4] = system: H1299 (non-small-cell lung carcinoma cells); experiment: MTT antiproliferative assay, H1299; assay type: cell-based, human
# Protocol: as §1, §2
# [5] = system: A549 (lung alveolar adenocarcinoma); experiment: MTT antiproliferative assay, A549; assay type: cell-based, human; details: 72 h
# Protocol: as §1, §2
# HeLa (cervical cancer) = experiment: MTT antiproliferative assay, HeLa; assay type: cell-based, human; details: 72 h
# Protocol: as §1, §2
# [6] = system: HepG2 (hepatocellular carcinoma); experiment: MTT antiproliferative assay, HepG2; assay type: cell-based, human; details: 72 h
# Protocol: as §1, §2
# [7] = system: HT-29 (colorectal adenocarcinoma); experiment: MTT antiproliferative assay, HT-29; assay type: cell-based, human; details: HT-29, MTT, 72 h
# Protocol: as §1, §2
# [8] = system: PC3 (prostate adenocarcinoma); experiment: MTT antiproliferative assay, PC3; assay type: cell-based, human; details: 72 h
# Protocol: as §1, §2
Compound,IC50 ([1]; Homo sapiens) [µM],"IC50 ([2]; Homo sapiens, MCF7) [µM]",IC50 ([3]; Homo sapiens) [µM],"IC50 ([4]; Homo sapiens, NCI-H1299, 72 h) [µM]",IC50 ([5]; Homo sapiens) [µM],IC50 (HeLa (cervical cancer); Homo sapiens) [µM],IC50 ([6]; Homo sapiens) [µM],IC50 ([7]; Homo sapiens) [µM],IC50 ([8]; Homo sapiens) [µM],further results
COc1ccc(C2=N[C@@H](C#N)[C@@H](c3ccccc3)C2)cc1 (racemic) [cis-4e],427 ± 12,1770 ± 232,> 3620,840 ± 43,341 ± 26,158 ± 6.5,554 ± 34,308 ± 8,478 ± 58,–
N#C[C@@H]1N=C(c2ccccc2)C[C@@H]1c1cccnc1 (racemic) [cis-4h],2280 ± 178,1380 ± 255,> 4110,2980 ± 62,311 ± 19,2220 ± 136,3000 ± 107,1640 ± 132,1920 ± 70,–
Cc1ccc(C2=N[C@@H](C#N)[C@@H](c3ccccc3)C2)cc1 (racemic) [cis-4k],104 ± 6,374 ± 6,2560 ± 107,205 ± 6,82.2 ± 5.8,169 ± 10,235 ± 15,853 ± 46,297 ± 25,–
COc1cc(O)c(C2=N[C@@H](C#N)[C@@H](c3ccc(C)c(Cl)c3)C2)c(OC)c1 (racemic) [cis-4n],–,–,75.8,–,–,–,–,–,–,–
COc1cc(O)c(C2=N[C@@H](C#N)[C@@H](c3ccc(C)c(Br)c3)C2)c(OC)c1 (racemic) [cis-4o],–,–,35.9,–,–,–,–,–,–,–
COc1cc(O)c(C2=N[C@@H](C#N)[C@H](c3ccc(C)c(F)c3)C2)c(OC)c1 (racemic) [trans-4m],79.3 ± 2.5,149 ± 12,717 ± 73,36.4 ± 2,32.2 ± 1.1,1170 ± 42,44.6 ± 2.8,28.1 ± 2,44.3 ± 5.4,–
COc1cc(O)c(C2=N[C@@H](C#N)[C@H](c3ccc(C)c(Cl)c3)C2)c(OC)c1 (racemic) [trans-4n],–,–,–,–,–,–,–,–,–,antiproliferative activity (in words) [3]: very poor activity
COc1cc(O)c(C2=N[C@@H](C#N)[C@H](c3ccc(C)c(Br)c3)C2)c(OC)c1 (racemic) [trans-4o],–,–,–,–,–,–,–,–,–,antiproliferative activity (in words) [3]: very poor activity
"COc1cc(O)c(C2=N[C@@H](C#N)[C@H](c3ccc(C)c(F)c3)C2)c(OC)c1 (relative stereo) [cis-4m, rel-(2R,3S)-3-(3-fluoro-4-methylphenyl)-5-(2-hydroxy-4,6-dimethoxyphenyl)-3,4-dihydro-2H-pyrrole-2-carbonitrile]",–,–,–,–,–,–,–,–,–,IC50 [1]: 170 ± 12 µM; IC50 [2]: 185 ± 26 µM; IC50 [3]: 16 ± 0.7 µM; IC50 ([4]; 72 h): 25.4 ± 2.3 µM; IC50 [5]: 97.6 ± 13 µM; IC50 (HeLa (cervical cancer)): 224 ± 15 µM; IC50 [6]: 117 ± 4.8 µM; IC50 [7]: 19.6 ± 1.8 µM; IC50 [8]: 115 ± 4.8 µM
"Cc1ccc(C2=N[C@@H](C#N)[C@H](c3ccccc3)C2)cc1 (relative stereo) [trans-4k, rel-(2R,3S)-5-(4-methylphenyl)-3-phenyl-3,4-dihydro-2H-pyrrole-2-carbonitrile]",182 ± 5.8,568 ± 57,313 ± 20,354 ± 15,11.7 ± 0.8,84.1 ± 2.3,159 ± 4.6,136 ± 7.7,121 ± 13,–
"N.N.[Cl][Pt][Cl] [Cisplatin, reference compound]",–,–,–,–,–,–,–,–,–,IC50 [1]: 23.2 ± 1.4 µM; IC50 [2]: 45.8 ± 3.2 µM; IC50 [3]: 1.8 ± 0.1 µM; IC50 ([4]; 72 h): 5 ± 0.9 µM; IC50 [5]: 38.6 ± 4.7 µM; IC50 (HeLa (cervical cancer)): 19.6 ± 3.2 µM; IC50 [6]: 19.1 ± 0.4 µM; IC50 [7]: 8.2 ± 0.3 µM; IC50 [8]: 3.4 ± 0.5 µM
COc1cc(O)c(C2=N[C@@H](C(N)=O)[C@@H](c3ccc(C)c(F)c3)C2)c(OC)c1 [cis-6m],429 ± 28,923 ± 37,1990 ± 40,1880 ± 51,136 ± 5.4,1180 ± 37,117 ± 6.2,64.3 ± 4.8,125 ± 7.6,–
